Experiment [1] concerns human hippocampal neurosphere stem cells. As to the kind of experiment: Cell viability assay (ATP) of neurosphere stem cells (Example 6). Type of experiment: cell-based. The conditions noted are these: series concentrations, 4 days; maximum increase versus DMSO control. The procedure: 1) On a superclean bench and under sterile conditions, human embryo hippocampus was taken out;
2) After envelope and blood vessels were removed under a dissecting microscope, tissue obtained was rinsed with pre-cooled PBS at 4° C. 3-5 times, leaving a very small amount of PBS;
3) The tissue was cut into pieces using ophthalmic scissors, and about 5 ml of culture medium was added to suspend the tissue pieces, and then the obtained cell suspension was gently pipetted to achieve single cell state with a pipette tip;
4) The cell suspension was filtered through a 40 μm pore size cell sieve;
5) Cell density was regulated to 1×10^6/ml, and then the cells were inoculated into a […] glass culture flask;
6) The cells in the flask were cultured in a 37° C., 5% CO2 cell culture incubator.
The human hippocampal neurosphere stem cells were mechanically pipetted into small clones, regulated into a suitable density, and inoculated into a 96-well, black-wall plate at about 50 neurospheres/110 μL cell suspension/well. […] Without changing the medium, ATP was added at 20 μL/well after the compound acted for 4 days or other time, and the viability of cells was detected.

In experiment [2] the test system is Human embryonic stem cell line H9 cells. Briefly: Apoptosis in single-cell culture, Annexin V/PI flow cytometry (Example 2). The class given is cell-based. The conditions noted are these: day 2 of inoculation; Stemazole 100 μM, Y27632 10 μM; DMSO group 54.1%. The procedure: Human embryonic stem cell line H9 cells were digested into single cells, divided into 3 groups as follows, and then inoculated at a low density on low-density MEF feeder layer cells in 6-well plates:
Experiment group (ST group): complete medium+Stemazole dissolved in DMSO at a concentration in the final culture medium of 100 μM;
Negative control group (DMSO group): complete medium+DMSO at an amount corresponding to the experiment group;
Positive control group (Y27632 group): complete medium+Y27632 dissolved in DMSO at a concentration in the final culture medium of 10 μM.
The cell ratio of each well of the three groups was 10 H9 cells/1 MEF cell.
Apoptosis was detected by flow cytometry using the specific apoptosis assay kit Annexin V/PI on day 2 of inoculation.
(In flow cytometry, cells or beads pass a laser one at a time.)

Experiment [3] deals with human embryonic stem cell strain H9 cells. Briefly: Single cell clone formation in single-cell culture, alkaline phosphatase and OCT-4 staining (Example 1). The class given is cell-based. As to conditions: 100 μM; for number of clones of alkaline phosphatase positive cells: H9 single cells on MEF feeder. How it is done: Alkaline Phosphatase Staining—
1) Rinsing cells with PBS, 3 times;
2) Fixing the cell with 4% paraformaldehyde for 10 minutes;
3) Washing with PBS, 3 times;
4) Preparing alkaline phosphatase staining agent:solution A:solution B:solution C=10 μl:10 μl:1 ml;
5) Adding the alkaline phosphatase staining agent to cover the cells, and staining for 20 minutes at room temperature in dark;
6) Aspirating off the staining agent, rinsing with PBS 3 times, storing the cells in PBS, and observing staining under a microscope.
Immunofluorescence Staining—
After being digested into single cells, human embryonic stem cell strain H9 cells were divided into two groups as follows, and inoculated on low density MEF feeder layer cells in 96-well plates:
(§1) Experiment group (ST group): complete medium+Stemazole dissolved in DMSO at a final concentration in the culture medium of 100 μM;
Control group (DMSO group): complete medium+DMSO with an amount corresponding to the experiment group.
The cell ratio of each well in the two groups was H9 cell/100 MEF cells, and the medium was supplemented once every 4 days.
Alkaline phosphatase staining was performed on day 4 and day 8. The results are shown in FIG. 1A: the number and sizes of the clones formed by the H9 cells in the DMSO group were less and smaller, while the number and sizes of the clones formed in ST group were higher and larger. […] The number of clones of alkaline phosphatase positive cells in the DMSO group averaged about 12 on day 8, and the number of clones of the alkaline phosphatase positive cells in the ST group averaged about 23, and the difference between the number of the clones in the two groups was significant. As to the size, the diameter of the alkaline phosphatase positive cells in the DMSO group on day 4 averaged about 50 microns, and the diameter of the alkaline phosphatase positive cells in the ST group averaged about 100 microns. There was no significant difference between the sizes of the clones in the two groups. The diameter of the alkaline phosphatase positive cells in the DMSO group on day 8 averaged about 70 microns, and the diameter of the alkaline phosphatase positive cells in the ST group averaged about 200 microns. There was a significant difference between the sizes of the clones in the two groups.
OCT-4 immunofluorescence staining was performed on day 1 and day 8.

Experiment [4] has as its system Human embryonic stem cell line H9 cells. Briefly: Apoptosis during total nutrient removal culture, Annexin V/PI flow cytometry (Example 3). As to conditions: total nutrient removal for 15 hours; 100 μM; DMSO group about 43%, normal culture about 0.4%. The class given is cell-based. How it is done: After passaged, human embryonic stem cell line H9 cells were divided into the following two groups and inoculated in 6-well plates:
Experiment group (ST group): total nutrient removal culture medium (complete medium with removal of serum and growth factor)+Stemazole dissolved in DMSO at a final concentration in the culture medium of 100 μM;
Control group (DMSO group): total nutrient removal culture medium+DMSO with an amount corresponding to the experiment group;
(§2) Normal culture group: complete medium.
Apoptosis was detected by flow cytometry using the specific apoptosis assay kit Annexin V/PI.

Experiment [5] relates to Human embryonic stem cell strain H1-9 cells. As to the kind of experiment: Number of cells as a function of culture time in single-cell culture (Example 4). Type of experiment: cell-based. As to conditions: 100 μM; complete medium; single-cell culture on MEF feeder. The procedure: Human embryonic stem cell strain H1-9 cells were digested into single cells, then divided into following three groups and inoculated on low-density MEF feeder layer cells in 6-well plates:
as §1
Control group (DMSO group): complete medium+DMSO with the amount corresponding to the experiment group;
as §2
The cells in each well of the three groups were maintained well grown on the MEF feeder layer cells, and the medium was supplemented once every 4 days.

The test system of experiment [6] is H9 cells. Briefly: Expression of stem cell markers after total nutrient removal culture, quantitative PCR and immunofluorescence (Example 5 I). Type of experiment: cell-based, human. The conditions noted are these: 15 hours total nutrient removal culture; 100 μM. The procedure: Following the experimental method in Example 3, H9 cells were divided into experiment group (ST group) and control group (DMSO group) and cultured. After 15 hours of total nutrient removal culture, the expression of each of human embryonic stem cells' important markers OCT-4, Sox2, FDF4, KLF4, REX1, and Nanog was detected by quantitative PCR.
Ct (Cycle threshold) of each sample was measured by calculating 2^−^ΔΔ^Ct, to compare differential expression of specific gene between different samples. In order to reduce systematic error and sampling error, triplicate wells in parallel were set for each sample. The average value of the triplicate wells was taken as the Ct of the sample, and then 2^−^ΔΔ^Ct was calculated according to the formulas below. […]
In addition, still following the experimental method in Example 3, 1H9 cells were divided into experiment group (ST group), control group (DMSO group) and normal culture group and cultured. After total nutrient removal culture for 15 hours, the expression of each of human embryonic stem cells' important markers OCT-4 and E-Cadherin was detected by immunofluorescence staining.

For experiment [7], the system named is H9 cells. As to the kind of experiment: Ki67 proliferation marker immunofluorescence after total nutrient removal culture (Example 5 II). As to conditions: 15 hours total nutrient removal culture; 100 μM. Type of experiment: cell-based, human. The procedure: Following the experimental method in Example 3, H9 cells were divided into experiment group (ST group), control group (DMSO group) and normal culture group and cultured. After total nutrient removal culture for 15 hours, immunofluorescence staining of the H9 cells was conducted for Ki67 (a proliferation marker).

The subject of experiment [8] is H9 cells. As to the kind of experiment: Embryoid body formation in total nutrient removal culture (Example 5 III). The conditions noted are these: measured at the 15th hour, 100 μM, compared to DMSO group. Type of experiment: cell-based, human. The procedure: Following the experimental method in Example 3, H9 cells were divided into experiment group (ST group), control group (DMSO group) and normal culture group and cultured. The formation of EBs was observed under a microscope at the 15th hour, and on day 2 and day 4 of total nutrient removal culture respectively, and the diameter and number of EBs were measured at the 15th hours.

For experiment [9], the system named is H9 cells. As to the kind of experiment: Induced differentiation into endoderm, mesoderm and ectoderm cells, marker expression (Example 5 IV). Type of experiment: cell-based, human. As to conditions: nutrient starving 15 hours, then 4 days differentiation medium; 100 μM. An excerpt:
Following the experimental method in Example 3, H9 cells were divided into experiment group (ST group), control group (DMSO group) and normal culture group and cultured.
The H9 cells were digested by Collagenase IV, washed with DMEM (high glucose) 3 times, and gently blown into small cell clusters, then were inoculated into 100 mm petri dishes with the culture medium changed into differentiation culture medium (DMEM/F12, 20% FBS, 1× non-essential amino acid, 1×sodium pyruvate, 1×β-mercaptoethanol, double antibiotics, and 2 mM glutamine). The medium was changed every 2 days, and the dishes were observed on each day. After 4 days, RNA was extracted and the differentiation ability of the H9 cells to endoderm, mesoderm and ectoderm cells was detected.

Turning to `NNC(=S)Nc1ccc(-c2nnc(S)o2)cc1Br` [Br-Stemazole, 4-(2-br-4-(5-mercapto-1,3,4-oxadiazole-2-yl)phenyl)thiosemicarbazide], in experiment [1], the “cell viability increase over the control group” value is listed as “up to 2.1 times”.

In the case of `C[C@@H](N)[C@H]1CC[C@H](C(=O)Nc2ccncc2)CC1` [Y27632, 4-[(1R)-1-aminoethyl]-N-(pyridine-4-yl)cyclohexane-1-carboxamide, reference compound], the “Annexin V positive apoptotic cells” value in experiment [2] turned out to be 20.1%.

For the compound `NNC(=S)Nc1ccc(-c2nnc(S)o2)cc1` [Stemazole, 4-(4-(5-mercapto-1,3,4-oxadiazole-2-yl)phenyl)thiosemicarbazide], in experiment [3] (day 1 and day 8), the “OCT-4 immunofluorescence staining, single cell growth into monoclonal cells” value was “single cells had grown into monoclonal cells”. The “diameter of the alkaline phosphatase positive cells (clone size)” value in [3] (day 4, DMSO group about 50) is “about 100 microns”. The “number of clones of alkaline phosphatase positive cells” value in [3] (day 4, DMSO group about 8) was “about 18”. For the same compound, in experiment [3] (day 8, DMSO group about 70), the “diameter of the alkaline phosphatase positive cells (clone size)” value was “about 200 microns”. Besides, in experiment [3] (day 8, DMSO group about 12), the “number of clones of alkaline phosphatase positive cells” value is given as “about 23”. Further, the “Annexin V positive apoptotic cells” value in [2] stood at 25.2%. The apoptosis rate result in experiment [4] is given as “about 8%”. The “number of cells as a function of time” value in experiment [5] is recorded as “did not increase”. In the experiment with H9 cells [6], the “expression of markers OCT-4, Sox2, FDF4, KLF4, REX1, Nanog by quantitative PCR” value was “maintained the stem cell characteristics”; the “expression of markers OCT-4 and E-Cadherin by immunofluorescence staining” value is reported as “maintained the stem cell characteristics”. In addition, in the experiment on H9 cells [7], the “expression of proliferation marker Ki67” value is reported as “maintained the proliferation ability”. For the same compound, in the experiment on H9 cells [8], the “formation of EBs, diameter and number” value is “more EBs with larger diameter”. In addition, in the experiment with H9 cells [9], the “expression of ectoderm marker GFAP” value was “comparable to that of the normal control group cells”, the “expression of ectoderm marker Pax6” value is listed as “higher than that of normal control group cells” and the “expression of mesoderm marker MSX1” value is “higher than that of normal control group cells”. Besides, the “cell viability increase over the control group” value in experiment [1] is “up to 2.7 times”.

For the origin of these results see patent US11324726B2, “Small molecular Stemazole for promoting stem cell clonal formation and applications thereof” (BEIJING NORMAL UNIVERSITY, priority 2016, dated 2022).
